Experimental data as given in patent US11453703B2, “Heterotandem bicyclic peptide complexes” (BicycleTX Limited, priority 2018, dated 2022).

Legend:
[1] = molecular target: T1, human Nectin-4 protein (Homo sapiens, UniProt Q96NY8); assay: Nectin-4 Biacore (SPR) binding assay; conditions: biotinylated human Nectin-4, 25° C.
T1 construct: Human Nectin-4 (residues Gly32-Ser349); host or cells: Sf21 insect cells (baculovirus, pFastbac-1)
T1 sequence (Q96NY8 32-349): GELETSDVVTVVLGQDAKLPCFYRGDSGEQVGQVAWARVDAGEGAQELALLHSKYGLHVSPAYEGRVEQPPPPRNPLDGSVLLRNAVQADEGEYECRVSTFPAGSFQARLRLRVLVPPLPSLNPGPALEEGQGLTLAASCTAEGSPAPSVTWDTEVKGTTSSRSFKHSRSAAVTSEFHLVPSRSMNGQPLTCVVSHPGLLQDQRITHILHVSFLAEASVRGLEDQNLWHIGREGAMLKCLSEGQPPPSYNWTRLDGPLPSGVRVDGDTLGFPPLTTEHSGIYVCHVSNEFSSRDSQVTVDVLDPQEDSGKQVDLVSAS
Method: Biacore experiments were performed to determine ka (M^−1s^−1), kd (s^−1), KD (nM) values of heterotandem peptides binding to human Nectin-4 protein (obtained from Charles River). Human Nectin-4 (residues Gly32-Ser349; NCBI RefSeq: NP_112178.2) with a gp67 signal sequence and C-terminal FLAG tag was cloned into pFastbac-1 and baculovirus made using standard Bac-to-Bac™ protocols (Life Technologies). Sf21 cells at 1×10^6 ml^−1 in Excell-420 medium (Sigma) at 27° C. were infected at an MOI of 2 with a P1 virus stock and the supernatant harvested at 72 hours. The supernatant was batch bound for 1 hour at 4° C. with Anti-FLAG M2 affinity agarose resin (Sigma) washed in PBS and the resin subsequently transferred to a column and washed extensively with PBS. The protein was eluted with 100 μg/ml FLAG peptide. The eluted protein was concentrated to 2 ml and loaded onto an S-200 Superdex column (GE Healthcare) in PBS at 1 ml/min. 2 ml fractions were collected and the fractions containing Nectin-4 protein were concentrated to 16 mg/ml.
The protein was extensively desalted to remove uncoupled biotin using spin columns into PBS.
For analysis of peptide binding, a Biacore 3000 instrument was used with a CM5 chip (GE Healthcare). Streptavidin was immobilized on the chip using standard amine-coupling chemistry at 25° C. with HBS-N (10 mM HEPES, 0.15 M NaCl, pH 7.4) as the running buffer. Briefly, the carboxymethyl dextran surface was activated with a 7 minute injection of a 1:1 ratio of 0.4 M 1-ethyl-3-(3-dimethylaminopropyl) carbodiimide hydrochloride (EDC)/0.1 M N-hydroxy succinimide (NHS) at a flow rate of 10 μl/min. For capture of streptavidin, the protein was diluted to 0.2 mg/ml in 10 mM sodium acetate (pH 4.5) and captured by injecting 120 μl of streptavidin onto the activated chip surface. Residual activated groups were blocked with a 7 minute injection of 1 M ethanolamine (pH 8.5) and biotinylated Nectin-4 captured to a level of 1,200-1,800 RU. Buffer was changed to PBS/0.05% Tween 20 and a dilution series of the peptides was prepared in this buffer with a final DMSO concentration of 0.5%. The top peptide concentration was 100 nM with 6 further 2-fold dilutions. The SPR analysis was run at 25° C. at a flow rate of 50 μl/min with 60 seconds association and dissociation between 400 and 1,200 seconds depending upon the individual peptide. Data were corrected for DMSO excluded volume effects. All data were double-referenced for blank injections and reference surface using standard processing procedures and data processing and kinetic fitting were performed using Scrubber software, version 2.0c (BioLogic Software). Data were fitted using simple 1:1 binding model allowing for mass transport effects where appropriate.

[2] = test system: human PBMC co-cultured with 4T1-D02 (Nectin4+); assay: Human PBMC-4T1 co-culture (cytokine release) assay; type: cell-based; conditions: anti-CD3 stimulated PBMC, 48 hours
How it was run: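 Healthy-donor human PBMCs co-cultured 5:1 with murine Nectin-4-overexpressing 4T1-D02 cells, stimulated with 125 ng/ml soluble anti-CD3 (OKT3) plus test compounds. IL-2 and IFNγ in 48 h supernatants measured by HTRF and interpolated from standard curves; three donors, each in duplicate.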

[3] = molecular target: T2, CD137 (Homo sapiens, UniProt Q07011); assay: CD137 reporter assay, co-culture with Nectin-4 tumour cells; type: cell-based; set-up: host or cells: Jurkat reporter cells; conditions: for Fold Induction over Background: tumour target Nectin4, co-culture with H1376, 6 h;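 as to all read-outs here: jurkat reporter cells co-cultured with tumour cells and test article for 6 h, luminescence signal relative to Jurkat plus tumour cells lacking test article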
T2 sequence (Q07011 24-255): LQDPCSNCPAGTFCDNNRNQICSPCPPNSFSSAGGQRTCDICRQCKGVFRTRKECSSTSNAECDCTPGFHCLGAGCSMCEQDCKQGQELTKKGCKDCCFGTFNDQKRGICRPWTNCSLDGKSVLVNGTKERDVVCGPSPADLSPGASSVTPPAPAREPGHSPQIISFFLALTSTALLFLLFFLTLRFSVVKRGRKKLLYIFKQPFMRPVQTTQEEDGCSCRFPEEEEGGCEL

[4] = molecular target: T2, CD137; assay: CD137 Biacore (SPR) binding assay; set-up: purchased R&D systems; conditions: biotinylated human CD137, 25° C.
How it was run: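 Biotinylated human CD137 captured (270-1500 RU) on streptavidin-coupled dextran chip; peptides up to 500 nM in PBS/0.05% Tween 20, 0.5% DMSO, at 25°C, 60 s association, 900 s dissociation. Double-referenced data fitted to 1:1 binding model, with mass transport where appropriate.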

| Structure (SMILES) | Kd [1] [nM] | max IFN-y [2] | fold induction at 0.1 µM ([3]; read-out: Fold Induction over Background at 100 nM) | Kd [4] [nM] | EC50 [3] [nM] | Fold Induction over Background [3] [fold] |
| --- | --- | --- | --- | --- | --- | --- |
| CCCC[C@@H]1NC(=O)[C@H](Cc2ccc(O)cc2)NC(=O)[C@@H]2CCCN2C(=O)[C@H](CC(=O)O)NC(=O)[C@H](C)NC(=O)[C@H](Cc2ccccc2)NC(=O)[C@@H]2CSCCC(=O)N3CN(CN(C3)C(=O)CCSC[C@@H](C(=O)N[C@@H](CNC(=O)CCOCCOCCOCCOCCOCCOCCOCCOCCOCCOCCOCCOCCn3cc(CCC(=O)NCCC(=O)N(C)CC(=O)N(C)CC(=O)N(C)CC(=O)N(C)CC(=O)N(C)CC(=O)N(C)CC(=O)N(C)CC(=O)N(C)CC(=O)N(C)CC(=O)N(C)CC(=O)N[C@H]4CSCCC(=O)N5CN6CN(C5)C(=O)CCSC[C@H](NC(=O)[C@@H](CC(=O)O)NC(=O)[C@H](Cc5cccc7ccccc57)NC(=O)[C@@H]5CCCN5C4=O)C(=O)N[C@@H](CCSC)C(=O)N[C@@H](CCCCNC(=N)N)C(=O)N[C@@H](CC(=O)O)C(=O)N[C@H](Cc4c[nH]c5ccccc45)C(=O)N[C@@H](CO)C(=O)N[C@@H]([C@@H](C)O)C(=O)N4CCC[C@H]4C(=O)N4C[C@H](O)C[C@H]4C(=O)N[C@H](Cc4c[nH]c5ccccc45)C(=O)N[C@H](C(N)=O)CSCCC6=O)nn3)C(N)=O)NC1=O)C(=O)CCSC[C@H](NC(=O)[C@H](C)NC(C)=O)C(=O)N[C@@H]([C@@H](C)CC)C(=O)N[C@@H](CCC(=O)O)C(=O)N[C@@H](CCC(=O)O)C(=O)NCC(=O)N[C@@H](CCC(N)=O)C(=O)N[C@@H](Cc1ccc(O)cc1)C(=O)N2 [BCY9350] | > 200 | No Activity up to 1 μM | < 2 | – | – | – |
| CCCC[C@@H]1NC(=O)[C@H](Cc2ccc(O)cc2)NC(=O)[C@@H]2CCCN2C(=O)[C@H](CC(=O)O)NC(=O)[C@H](C)NC(=O)[C@H](Cc2ccccc2)NC(=O)[C@@H]2CSCCC(=O)N3CN(CN(C3)C(=O)CCSC[C@@H](C(=O)N[C@@H](CNC(=O)CCc3cn(CCCNC(=O)CN(C)C(=O)CN(C)C(=O)CN(C)C(=O)CN(C)C(=O)CN(C)C(=O)CN(C)C(=O)CN(C)C(=O)CN(C)C(=O)CN(C)C(=O)CN(C)C(=O)COCCOCCOCCOCCOCCOCCOCCOCCOCCOCCNC(=O)N[C@H]4CSCCC(=O)N5CN6CN(C5)C(=O)CCSC[C@H](NC(=O)[C@@H](CC(=O)O)NC(=O)[C@H](Cc5cccc7ccccc57)NC(=O)[C@@H]5CCCN5C4=O)C(=O)N[C@@H](CCSC)C(=O)N[C@@H](CCCCNC(=N)N)C(=O)N[C@@H](CC(=O)O)C(=O)N[C@@H](Cc4c[nH]c5ccccc45)C(=O)N[C@@H](CO)C(=O)N[C@@H]([C@@H](C)O)C(=O)N4CCC[C@H]4C(=O)N4C[C@H](O)C[C@H]4C(=O)N[C@@H](Cc4c[nH]c5ccccc45)C(=O)N[C@H](C(N)=O)CSCCC6=O)nn3)C(N)=O)NC1=O)C(=O)CCSC[C@H](NC(=O)[C@H](C)NC(C)=O)C(=O)N[C@@H]([C@@H](C)CC)C(=O)N[C@@H](CCC(=O)O)C(=O)N[C@@H](CCC(=O)O)C(=O)NCC(=O)N[C@@H](CCC(N)=O)C(=O)N[C@@H](Cc1ccc(O)cc1)C(=O)N2 [BCY9408] | 1.57 | – | – | 105 | 1.1 | 20 |
| CCCC[C@@H]1NC(=O)[C@H](Cc2ccc(O)cc2)NC(=O)[C@@H]2CCCN2C(=O)[C@H](CC(=O)O)NC(=O)[C@H](C)NC(=O)[C@H](Cc2ccccc2)NC(=O)[C@@H]2CSCCC(=O)N3CN(CN(C3)C(=O)CCSC[C@@H](C(=O)N[C@@H](CNC(=O)CCc3cn(CCCNC(=O)CN(C)C(=O)CN(C)C(=O)CN(C)C(=O)CN(C)C(=O)CN(C)C(=O)CN(C)C(=O)CN(C)C(=O)CN(C)C(=O)CN(C)C(=O)CN(C)C(=O)CN(C)C(=O)CN(C)C(=O)CN(C)C(=O)CN(C)C(=O)CN(C)C(=O)COCCOCCOCCOCCOCCNC(=O)N[C@H]4CSCCC(=O)N5CN6CN(C5)C(=O)CCSC[C@H](NC(=O)[C@@H](CC(=O)O)NC(=O)[C@H](Cc5cccc7ccccc57)NC(=O)[C@@H]5CCCN5C4=O)C(=O)N[C@@H](CCSC)C(=O)N[C@@H](CCCCNC(=N)N)C(=O)N[C@@H](CC(=O)O)C(=O)N[C@@H](Cc4c[nH]c5ccccc45)C(=O)N[C@@H](CO)C(=O)N[C@@H]([C@@H](C)O)C(=O)N4CCC[C@H]4C(=O)N4C[C@H](O)C[C@H]4C(=O)N[C@@H](Cc4c[nH]c5ccccc45)C(=O)N[C@H](C(N)=O)CSCCC6=O)nn3)C(N)=O)NC1=O)C(=O)CCSC[C@H](NC(=O)[C@H](C)NC(C)=O)C(=O)N[C@@H]([C@@H](C)CC)C(=O)N[C@@H](CCC(=O)O)C(=O)N[C@@H](CCC(=O)O)C(=O)NCC(=O)N[C@@H](CCC(N)=O)C(=O)N[C@@H](Cc1ccc(O)cc1)C(=O)N2 [BCY9409] | 1.66 | – | – | 97.7 | 1.2 | 24 |
| CCCC[C@@H]1NC(=O)[C@H](Cc2ccc(O)cc2)NC(=O)[C@@H]2CCCN2C(=O)[C@H](CC(=O)O)NC(=O)[C@H](C)NC(=O)[C@H](Cc2ccccc2)NC(=O)[C@@H]2CSCCC(=O)N3CN(CN(C3)C(=O)CCSC[C@@H](C(=O)N[C@@H](CNC(=O)CCc3cn(CCCNC(=O)CN(C)C(=O)CN(C)C(=O)CN(C)C(=O)CN(C)C(=O)CN(C)C(=O)COCCOCCOCCOCCOCCNC(=O)N[C@H]4CSCCC(=O)N5CN6CN(C5)C(=O)CCSC[C@H](NC(=O)[C@@H](CC(=O)O)NC(=O)[C@H](Cc5cccc7ccccc57)NC(=O)[C@@H]5CCCN5C4=O)C(=O)N[C@@H](CCSC)C(=O)N[C@@H](CCCCNC(=N)N)C(=O)N[C@@H](CC(=O)O)C(=O)N[C@@H](Cc4c[nH]c5ccccc45)C(=O)N[C@@H](CO)C(=O)N[C@@H]([C@@H](C)O)C(=O)N4CCC[C@H]4C(=O)N4C[C@H](O)C[C@H]4C(=O)N[C@@H](Cc4c[nH]c5ccccc45)C(=O)N[C@H](C(N)=O)CSCCC6=O)nn3)C(N)=O)NC1=O)C(=O)CCSC[C@H](NC(=O)[C@H](C)NC(C)=O)C(=O)N[C@@H]([C@@H](C)CC)C(=O)N[C@@H](CCC(=O)O)C(=O)N[C@@H](CCC(=O)O)C(=O)NCC(=O)N[C@@H](CCC(N)=O)C(=O)N[C@@H](Cc1ccc(O)cc1)C(=O)N2 [BCY9410] | 1.49 | – | – | 65.8 | 1.3 | 24 |
| CCCC[C@@H]1NC(=O)[C@H](Cc2ccc(O)cc2)NC(=O)[C@@H]2CCCN2C(=O)[C@H](CC(=O)O)NC(=O)[C@H](C)NC(=O)[C@H](Cc2ccccc2)NC(=O)[C@@H]2CSCCC(=O)N3CN(CN(C3)C(=O)CCSC[C@@H](C(=O)N[C@@H](CNC(=O)CCc3cn(CCOCCOCCOCCOCCOCCNC(=O)N[C@H]4CSCCC(=O)N5CN6CN(C5)C(=O)CCSC[C@H](NC(=O)[C@@H](CC(=O)O)NC(=O)[C@H](Cc5cccc7ccccc57)NC(=O)[C@@H]5CCCN5C4=O)C(=O)N[C@@H](CCSC)C(=O)N[C@@H](CCCCNC(=N)N)C(=O)N[C@@H](CC(=O)O)C(=O)N[C@@H](Cc4c[nH]c5ccccc45)C(=O)N[C@@H](CO)C(=O)N[C@@H]([C@@H](C)O)C(=O)N4CCC[C@H]4C(=O)N4C[C@H](O)C[C@H]4C(=O)N[C@@H](Cc4c[nH]c5ccccc45)C(=O)N[C@H](C(N)=O)CSCCC6=O)nn3)C(N)=O)NC1=O)C(=O)CCSC[C@H](NC(=O)[C@H](C)NC(C)=O)C(=O)N[C@@H]([C@@H](C)CC)C(=O)N[C@@H](CCC(=O)O)C(=O)N[C@@H](CCC(=O)O)C(=O)NCC(=O)N[C@@H](CCC(N)=O)C(=O)N[C@@H](Cc1ccc(O)cc1)C(=O)N2 [BCY9411] | 1.48 | – | – | 71.1 | 14 | 41 |
